Results from the supplement of paper PMC10307832.

What was measured:
Assay in all cases: relative viability (nuclei count vs DMSO), 5 days (fraction); higher = more cells survive
Vandetanib + AZD7762 = compound: COc1cc2/c(=N/c3ccc(Br)cc3F)nc[nH]c2cc1OCC1CCN(C)CC1 [Vandetanib] + NC(=O)Nc1cc(-c2cccc(F)c2)sc1C(=O)N[C@H]1CCCNC1 [AZD7762] (partner 0.2 µM)
In short: (§1)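 One day after seeding in 1536-well plates, lung cancer cell lines were dosed by pin tool. Dosing was either single-drug or a fixed anchor-drug dose plus five library-drug doses (not always all listed) in √10 steps. After 5 days, nuclei were stained in one fix-and-stain step and counted on 4× images, and relative viability is the nuclei count of treated wells over that of vehicle wells, given as the median of duplicate plates.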

CUDC-101 + Pictilisib = compound: C#Cc1cccc(Nc2ncnc3cc(OC)c(OCCCCCCC(=O)NO)cc23)c1 [CUDC-101] + CS(=O)(=O)N1CCN(Cc2cc3nc(-c4cccc5[nH]ncc45)nc(N4CCOCC4)c3s2)CC1 [Pictilisib] (partner 1 µM)
In short: as §1

[1] = compound: C1=CC=C2C(=C1)N=C(S2)C(C#N)C3=NC(=NC=C3)NCCC4=CN=CC=C4 + N=C(N)NC(=N)NCCc1ccccc1 [Phenformin] (partner 250 µM)
In short: as §1

CUDC-101 + Olaparib = compound: C#Cc1cccc(Nc2ncnc3cc(OC)c(OCCCCCCC(=O)NO)cc23)c1 [CUDC-101] + O=C(c1cc(Cc2n[nH]c(=O)c3ccccc23)ccc1F)N1CCN(C(=O)C2CC2)CC1 [Olaparib] (partner 8 µM)
In short: as §1

Cell Line | relative viability (Vandetanib + AZD7762; first compound 0.02 µM) | relative viability (Vandetanib + AZD7762; first compound 0.06325 µM) | relative viability (Vandetanib + AZD7762; first compound 0.2 µM) | relative viability (Vandetanib + AZD7762; first compound 0.6325 µM) | relative viability (Vandetanib + AZD7762; first compound 2 µM) | relative viability (CUDC-101 + Pictilisib; first compound 0.01 µM) | relative viability (CUDC-101 + Pictilisib; first compound 0.03162 µM) | relative viability (CUDC-101 + Pictilisib; first compound 0.1 µM) | relative viability (CUDC-101 + Pictilisib; first compound 0.3162 µM) | relative viability (CUDC-101 + Pictilisib; first compound 1 µM) | relative viability ([1]; first compound 0.005 µM) | relative viability ([1]; first compound 0.01581 µM) | relative viability ([1]; first compound 0.05 µM) | relative viability ([1]; first compound 0.1581 µM) | relative viability ([1]; first compound 0.5 µM) | relative viability (CUDC-101 + Olaparib; first compound 0.01 µM) | relative viability (CUDC-101 + Olaparib; first compound 0.03162 µM) | relative viability (CUDC-101 + Olaparib; first compound 0.1 µM) | relative viability (CUDC-101 + Olaparib; first compound 0.3162 µM) | relative viability (CUDC-101 + Olaparib; first compound 1 µM)
NCI-H1651 | 0.431 | 0.425 | 0.462 | 0.442 | 0.486 | 0.55 | 0.595 | 0.689 | 0.605 | 0.328 | 0.281 | 0.352 | 0.364 | 0.403 | 0.337 | 0.194 | 0.209 | 0.192 | 0.2 | 0.182
NCI-H1355 | 0.741 | 0.742 | 0.755 | 0.66 | 0.653 | 0.485 | 0.44 | 0.491 | 0.38 | 0.277 | 0.41 | 0.437 | 0.412 | 0.436 | 0.412 | 0.756 | 0.711 | 0.726 | 0.693 | 0.585
NCI-H596 | 1.15 | 1.05 | 1.12 | 1.02 | 1.17 | 0.403 | 0.382 | 0.422 | 0.384 | 0.68 | 0.557 | 0.848 | 0.687 | 0.921 | 0.801 | 0.616 | 0.597 | 0.718 | 0.689 | 0.67
NCI-H23 | 0.193 | 0.251 | 0.199 | 0.234 | 0.31 | 0.518 | 0.549 | 0.457 | 0.435 | 0.464 | 0.638 | 0.762 | 0.804 | 0.934 | 0.886 | 0.271 | 0.373 | 0.323 | 0.302 | 0.248
HCC-366 | 0.205 | 0.317 | 0.284 | 0.243 | 0.286 | 0.136 | 0.121 | 0.142 | 0.13 | 0.119 | 0.551 | 0.615 | 0.547 | 0.722 | 0.601 | 0.363 | 0.353 | 0.325 | 0.345 | 0.245
NCI-H2126 | 1.03 | 0.938 | 1.01 | 0.971 | 1 | 0.501 | 0.545 | 0.432 | 0.446 | 0.315 | 0.536 | 0.529 | 0.505 | 0.543 | 0.529 | 0.875 | 0.919 | 0.905 | 0.968 | 0.787
LU99A | 0.303 | 0.516 | 0.344 | 0.238 | 0.334 | 0.323 | 0.299 | 0.33 | 0.253 | 0.148 | 0.767 | 0.9 | 0.793 | 1.07 | 0.814 | 0.259 | 0.24 | 0.233 | 0.192 | 0.105
NCI-H650 | 1.01 | 1.02 | 0.976 | 0.941 | 0.905 | 0.856 | 0.888 | 1.05 | 0.705 | 0.51 | 0.49 | – | 0.483 | 0.452 | 0.505 | 0.393 | 0.377 | 0.337 | 0.299 | 0.185
LXF-289 | 1.07 | 1.08 | 1.04 | 1.1 | 1.01 | 0.758 | 0.806 | 0.806 | 0.728 | 0.51 | 0.447 | 0.563 | 0.458 | 0.592 | 0.496 | 1.01 | 1.14 | 1.06 | 1.08 | 0.599
CAL-12T | 0.676 | 0.611 | 0.631 | 0.643 | 0.574 | 0.686 | 0.64 | 0.396 | 0.449 | 0.396 | 0.539 | 0.433 | 0.584 | 0.619 | 0.485 | 0.734 | 0.681 | 0.752 | 0.772 | 0.668
NCI-H1975 | 0.701 | 0.663 | 0.645 | 0.687 | 0.617 | 0.336 | 0.323 | 0.265 | 0.24 | 0.192 | 0.301 | 0.42 | 0.404 | 0.447 | 0.359 | 0.853 | 0.737 | 0.818 | 0.859 | 0.745
NCI-H647 | 0.404 | 0.481 | 0.395 | 0.404 | 0.446 | 0.446 | 0.512 | 0.576 | 0.491 | 0.361 | 0.265 | 0.442 | 0.584 | 0.775 | 0.292 | 0.547 | 0.522 | 0.67 | 0.554 | 0.342
NCI-H322M | 0.518 | 0.567 | 0.605 | 0.496 | 0.374 | 0.522 | 0.546 | 0.439 | 0.417 | 0.353 | 0.63 | 0.688 | 0.708 | 0.81 | 0.694 | 0.789 | 0.674 | 0.771 | 0.692 | 0.594
